# Assay results as given in patent US11472723B2, “Method for removing heavy metals from an aqueous solution” (NEWSOUTH INNOVATIONS PTY LIMITED, priority 2016, dated 2022).
# Several values for one entry are separate records, joined by “and”; a condition that tells them apart may be missing. Equal values may be shown once. Read-outs that look alike come from different tables or passages of the source. Marks after values point to notes of the source that are not given here.
# Assays:
# Foaming test = format: physicochemical; details: about one tenth of CMC in water, shaken with air, Passed/Failed
# Method: A foaming test was performed by dissolving the test compound in water at a concentration of approximately one tenth of the CMC of the test compound. The solution was then placed in a stoppered vessel with air and shaken and a visual observation made as to whether a stable foam had been formed.
# [1] = Critical micelle concentration (CMC) in water; format: physicochemical
# From the text: In the bulk aqueous phase, surfactants form aggregates, such as micelles, at concentrations above the critical micelle concentration (CMC), where the hydrophobic tails form the core of the aggregate and the hydrophilic heads are in contact with the surrounding liquid. The CMC of a surfactant in an aqueous solution can be determined by a person skilled in the art using techniques known in the art. For example, the CMC of a surfactant can be determined by measuring changes in the conductance or surface tension of the solution at different concentrations of the surfactant.
# [2] = literature value (footnotes a-d); cited from earlier work
# Solubility in water = details: for Solubility in water up to minimum 0.01M: Yes/No
# From the text: The synthesized surfactants were compared to each other with respect to their water solubility, conductivity, critical micelle concentration and foaming ability to determine basic suitability for the ion flotation process.
# [3] = Ion flotation of arsenic solution in bubble column, As by ICP-MS; details: for Arsenic removal after 90 minutes / arsenic removal: flotation; for Arsenic removal after 90 minutes: 5 ppm arsenic solution; for arsenic removal / Adsorption (%): time not stated
# Method: (§1) An ICP-MS (Perkin Elmer, NexION 300D with Universal cell technology) was used to determine the arsenic, mercury and lead solution concentrations.
# In a typical experiment, 0.01 M of the single chain octanoyl-cysteine surfactant was dissolved (with stirring and heating to not more than 65° C.) in a solution of arsenic (HAsO4^2−) 5 ppm containing NaOH 0.1 M (to keep the pH at about 8), which was then made up to 100 ml using Milli-Q water.
# Two samples were taken after 30, 60 and 90 minutes and the arsenic concentration of each sample was determined by ICP-MS. The upper outlet foam was also collected in a waste container using an outlet tube. […]
# [4] = for As(III) / As(V) / Total As removal / Total As(V) reduced to As(III) / Total conc.: feed 5320.6 μg/L, 0.01M surfactant
# Method: The As(V)/As(III) speciation measurements were carried out using a PE 200 Series HPLC, using a PRPX 100 Column, attached to a PE DRC-e (Dynamic Reaction Cell-e) ICPMS. 20 milli molar ammonium phosphate buffer was used as carrier solution at 1.5 ml/min with a matched Meinhart nebuliser and baffled spray chamber. The plasma conditions used were: 1500 W RF, at a gas flow rate of […].
# Column solution samples after 30 minutes, and the solution remaining inside the column after 90 minutes, were sent for arsenic speciation determination analysis. It appears that after about half an hour the maximum adsorption of arsenic was obtained because no further foam was collected at the top of the column.
# [5] = Ion flotation of mercury ions with octanoyl-cysteine surfactant; details: 5 ppm Hg, 0.01M surfactant
# Method: as §1
# (§2) In similar ion flotation experiments, the removal rates for low levels of mercury and lead ions were also determined using the octanoyl-cysteine surfactant. The experiments were carried out using both air and pure N2 gas.
# [6] = Ion flotation of lead ions with octanoyl-cysteine surfactant; details: 5 ppm Pb, 0.01M surfactant
# Method: as §1, §2
# [7] = As in the waste collector (after 30 mins.)
# [8] = As remaining in the flotation cell (after 90 mins)
# [9] = 5 ppm As, 0.01M surfactant, inlet gas Air
smiles,measurement,setting,value
CCCCCCCCCCCC(=O)N[C@@H](CS)C(=O)O,Foaming test,Foaming test,Passed
same,CMC (in words),[1],low CMC values
same,CMC in water (M),[2],0.02 × 10^−3*^d M
same,solubility in water (in words),Solubility in water,low solubility in water
same,Solubility in water up to minimum 0.01M,Solubility in water,No
same,solubility,Solubility in water; water,300 µM
CCCCCCCCNC(=O)N[C@@H](CSSC[C@H](NC(=O)NCCCCCCCC)C(=O)O)C(=O)O [D-octyl isocyanate cystine],Foaming test,Foaming test,Failed
same,Foaming test,Foaming test; listed as double chain-octyl isocyanate cystine,produced no foaming in solution
same,CMC (in words),[1],acceptably high CMC values
same,CMC in water (M),[2],0.008*^c M
"CCCCCCCCSC[C@H](N)C(=O)O [S-octyl cysteine, reference compound]",Foaming test,Foaming test,Failed
same,Foaming test,Foaming test; listed as single chain octyl based cysteine surfactant,failed the foaming test
same,CMC (in words),[1],high CMC
same,CMC in water (M),[2],0.006*^b M
same,Adsorption after 30 min (%),"[3]; 100 ml of 5 ppm arsenic solution, surfactant 0.001 M (D-dodecanoyl cystine 0.01 × 10^−3 M)",0%
same,Arsenic removal after 90 minutes,[3],0%
same,arsenic removal,[3],no arsenic removal was observed
same,solubility in water (in words),Solubility in water,good solubility
same,Solubility in water up to minimum 0.01M,Solubility in water,Yes
CCCCCCCC(=O)N[C@@H](CS)C(=O)O [octanoyl-cysteine],Foaming test,Foaming test,Passed
same,CMC in water (M),[2],0.12*^a M
same,As(III),[4]; [7],5259.4 µg/L
same,As(V),[4]; [7],27.9 µg/L
same,Total As removal,[4]; [7],99.38%
same,Total As(V) reduced to As(III),[4]; [7],99.47%
same,Total conc.,[4]; [7],5287.4 µg/L
same,Total As(V) reduced to As(III),"[4]; As in the waste collector (after 30 mins.), listed as single chain octanoyl-cysteine",about 99.47%
same,As(III),[4]; [8],6.2 µg/L
same,As(V),[4]; [8],27.1 µg/L
same,Total As removal,[4]; [8],99.38%
same,Total As(V) reduced to As(III),[4]; [8],99.49%
same,Total conc.,[4]; [8],33.2 µg/L
same,Total As removal,"[4]; As remaining in the flotation cell (after 90 mins), listed as single chain octanoyl-cysteine",99.38%
same,As (V) remaining in the column reduced to As (III),"[4]; between the first 30 mins and 90 minutes, samples from inside the column",0.02%
same,Adsorption after 30 min (%),[5]; inlet gas Air,99.6%
same,Adsorption after 60 min (%),[5]; inlet gas Air,99.6%
same,Adsorption after 30 min (%),[5]; inlet gas N2,99.59%
same,Adsorption after 60 min (%),[5]; inlet gas N2,99.96%
same,Adsorption after 30 min (%),[3]; [9],72.6%
same,Adsorption after 60 min (%),[3]; [9],99.88%
same,Adsorption (%),"[3]; 100 ml of 5 ppm arsenic solution, purified product, Air",99.9 (Air) %
same,Adsorption (%),"[3]; 100 ml of 5 ppm arsenic solution, purified product, N2 gas, listed as single chain octanoyl cysteine",98.6 (N2) % and 99.4 (N2) %
same,Adsorption (%),"[3]; 100 ml of 5 ppm arsenic solution, raw product, N2 gas, listed as single chain octanoyl cysteine",93.8 (N2) % and 88.2 (N2) %
same,Arsenic removal after 90 minutes,[3],99.4%
same,arsenic removal,[3],99.00%
same,average removal of arsenic,"[3]; tests 1 and 2, raw unpurified product, 5 ppm feeding solution, after 90 minutes",91.00%
same,average removal of arsenic,"[3]; tests 3 and 4, purified (2 times recrystallized) product, after 30 minutes",99.00%
same,Solubility in water up to minimum 0.01M,Solubility in water,Yes
same,Adsorption after 30 min (%),[6]; inlet gas Air,92%
same,Adsorption after 60 min (%),[6]; inlet gas Air,99.1%
same,Adsorption after 30 min (%),[6]; inlet gas N2,94.9%
same,Adsorption after 60 min (%),[6]; inlet gas N2,99.4%
